Experiments:
Format in all cases: binding
ADORA3 = target: T1, ADORA3 (Homo sapiens, UniProt P0DMS8); test: NanoBRET screen HiBiT-ADORA3 in HEK293; conditions: ADORA3
T1 construct: purchased Promega (in-house HiBiT-GPCR construct library, NanoBRET)
T1 sequence (P0DMS8 1-318): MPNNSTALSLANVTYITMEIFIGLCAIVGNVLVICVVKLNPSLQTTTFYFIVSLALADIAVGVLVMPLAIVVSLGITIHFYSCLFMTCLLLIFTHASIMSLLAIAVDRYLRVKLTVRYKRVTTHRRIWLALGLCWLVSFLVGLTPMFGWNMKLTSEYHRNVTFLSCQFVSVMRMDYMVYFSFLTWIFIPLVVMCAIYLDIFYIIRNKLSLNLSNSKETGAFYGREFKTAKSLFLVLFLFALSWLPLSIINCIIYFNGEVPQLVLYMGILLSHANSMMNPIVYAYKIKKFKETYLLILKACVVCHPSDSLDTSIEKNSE
Description: (§1) Each tracer candidate was screened across the entire library of HiBiT-GPCR constructs using NanoBRET as the detection modality. As depicted in Figure 4A, the specificity of interactions was evaluated through decrease in BRET due to competitive displacement of a bound tracer by excess parental compound. Each tracer was analyzed for binding to each HiBiT-GPCR fusion in the absence and in the presence of competing parental compound. Briefly, HEK293 cells were transfected with HiBiT-GPCR constructs diluted into promoterless DNA to reduce expression and maximize translocation to the cell surface. Each tracer candidate was then screened at concentrations of 1 μM and 0.1 μM across cells expressing these fusions. Cells were treated for 1.5 h with tracer either alone or in the presence of 20 μM competing parental compound (i.e., control). BRET was measured upon addition of purified LgBiT and subsequent complementation with HiBiT genetically fused to a GPCR. The specificity of interactions was assessed through a decrease in BRET signal due to competitive displacement of the bound tracer. To further gauge the robustness of these interactions, the fold response over the control (i.e., BRETtracer/BRETcontrol) was calculated. We chose a 1.5-fold response, which translates to ≥7-fold signal over noise as the minimal threshold required to score an interaction as positive. […]. Below we highlight the screening results obtained for our exemplary fluorescent tracers based on Clozapine, Amitriptyline and AZD1283.
(§2) HiBiT-GPCR DNA constructs were diluted in 10 mM Tris pH 8 to a final concentration of 0.01 μg/μL, arrayed in 96-well plates and stored at −20 °C. For transfection, HEK293 cells were suspended in Opti-MEM (without phenol red) supplemented with 2% fetal bovine serum (Seradigm) and 100 units/mL penicillin–streptomycin (Gibco) at a final concentration of 220,000 cells/mL and dispensed into white 96-well plates at 90 μL/well. Subsequent transfections and screens were carried using an Agilent Bravo Automated Liquid Handling Platform. First, the 96-well HiBiT DNA arrays were diluted 25-fold in Opti-MEM (without serum or phenol red) to a final concentration of 0.0004 μg/μL and 20 μL of the diluted DNAs were transferred into new 96-well plates. Next, promoterless carrier DNA (1 μg/μL) was diluted 25-fold (0.04 μg/μL) and then dispensed into the diluted arrays at 20 μL/well. Following brief mixing, Viafect transfection reagent (Promega) diluted 16-fold into Opti-MEM was dispensed into the plates at 40 μL/well. After mixing by pipetting, plates were incubated for 10 min on the pipetting station deck. The DNA-transfection reagent complexes were then added to plates containing cells. To facilitate the screen, 10 μL of DNA-transfection reagent complexes were added in duplicates to the top 4 and bottom 4 rows, resulting in two identical 48-well arrays per plate. Plates with transfected cells were incubated for 18–20 h at 37 °C/5% CO2. A screen of each tracer across the entire library using two different concentrations requires duplicate plates of transfected cells. Depending on the number of tracers being screened, transfections can be scaled up using the same ratios. The next day, for each tracer, four 20× screening solutions in tracer dilution buffer (Promega) were prepared: two duplicates at final concentration of 20 μM and two duplicates at a final concentration of 2 μM. A competing unmodified compound was added to one of each duplicate at a final concentration of 400 μM. The four resulting solutions were diluted 4-fold in Opti-MEM without serum or phenol red to generate 5× solutions (5 µM and 0.5 µM tracer +/− 100 μM competing compound). To screen the library, a BioTek MultiFlo FX liquid dispenser was used to dispense 22.5 µL of tracer solution to the top 4 rows and 22.5 µL tracer + competing compound solution to the 4 bottom rows. Plates were briefly mixed on an orbital shaker and incubated for 1.5 h at room temperature. […]

CCKAR = target: T2, CCKAR (Homo sapiens, UniProt P32238); test: NanoBRET screen HiBiT-CCKAR in HEK293; conditions: CCKAR
T2 construct: purchased Promega (in-house HiBiT-GPCR construct library, NanoBRET)
T2 sequence (P32238 1-428): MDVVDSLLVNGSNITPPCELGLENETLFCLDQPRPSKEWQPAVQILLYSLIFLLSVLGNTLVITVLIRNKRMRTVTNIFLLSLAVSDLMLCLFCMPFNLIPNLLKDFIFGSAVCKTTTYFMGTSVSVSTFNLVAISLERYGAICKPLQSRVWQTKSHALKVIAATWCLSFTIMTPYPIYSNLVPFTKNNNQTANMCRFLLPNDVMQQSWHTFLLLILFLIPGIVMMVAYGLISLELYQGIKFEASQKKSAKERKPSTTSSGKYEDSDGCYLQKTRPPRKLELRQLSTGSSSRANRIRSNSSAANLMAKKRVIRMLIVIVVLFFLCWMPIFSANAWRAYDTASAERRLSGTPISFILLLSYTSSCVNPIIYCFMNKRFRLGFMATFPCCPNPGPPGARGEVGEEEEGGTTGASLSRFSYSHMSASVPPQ
Description: as §1, §2

HTR1B = target: T3, HTR1B (Homo sapiens, UniProt P28222); test: NanoBRET screen HiBiT-HTR1B in HEK293; conditions: HTR1B
T3 construct: purchased Promega (in-house HiBiT-GPCR construct library, NanoBRET)
Description: as §1, §2

OPRK1 = target: T4, OPRK1 (Homo sapiens, UniProt P41145); test: NanoBRET screen HiBiT-OPRK1 in HEK293; conditions: OPRK1
T4 construct: purchased Promega (in-house HiBiT-GPCR construct library, NanoBRET)
Outline: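 Tracer binding was scored as fold response, BRET with tracer alone divided by BRET with 20 μM parental competitor; 1.5-fold was the positive cutoff. Transfected HEK293 cells saw tracer at 1 μM and 0.1 μM for 1.5 h.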

GHSR = target: T5, GHSR (Homo sapiens, UniProt Q92847); test: NanoBRET screen HiBiT-GHSR in HEK293; conditions: GHSR
T5 construct: purchased Promega (in-house HiBiT-GPCR construct library, NanoBRET)
Description: as §1, §2

MC3R = target: T6, MC3R (Homo sapiens, UniProt P41968); test: NanoBRET screen HiBiT-MC3R in HEK293; conditions: MC3R
T6 construct: purchased Promega (in-house HiBiT-GPCR construct library, NanoBRET)
Description: as §1, §2

T4 sequence (P41145 whole entry): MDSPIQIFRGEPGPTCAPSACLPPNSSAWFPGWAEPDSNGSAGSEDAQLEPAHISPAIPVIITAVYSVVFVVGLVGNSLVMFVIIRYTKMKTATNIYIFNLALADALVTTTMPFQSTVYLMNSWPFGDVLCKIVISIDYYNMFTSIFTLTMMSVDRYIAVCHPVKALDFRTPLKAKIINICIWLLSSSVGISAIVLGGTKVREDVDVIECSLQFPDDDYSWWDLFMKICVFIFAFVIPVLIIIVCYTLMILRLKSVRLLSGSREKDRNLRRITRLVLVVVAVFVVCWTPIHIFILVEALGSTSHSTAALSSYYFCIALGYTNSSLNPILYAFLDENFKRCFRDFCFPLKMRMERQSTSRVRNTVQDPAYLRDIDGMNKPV
T3 sequence (P28222 whole entry): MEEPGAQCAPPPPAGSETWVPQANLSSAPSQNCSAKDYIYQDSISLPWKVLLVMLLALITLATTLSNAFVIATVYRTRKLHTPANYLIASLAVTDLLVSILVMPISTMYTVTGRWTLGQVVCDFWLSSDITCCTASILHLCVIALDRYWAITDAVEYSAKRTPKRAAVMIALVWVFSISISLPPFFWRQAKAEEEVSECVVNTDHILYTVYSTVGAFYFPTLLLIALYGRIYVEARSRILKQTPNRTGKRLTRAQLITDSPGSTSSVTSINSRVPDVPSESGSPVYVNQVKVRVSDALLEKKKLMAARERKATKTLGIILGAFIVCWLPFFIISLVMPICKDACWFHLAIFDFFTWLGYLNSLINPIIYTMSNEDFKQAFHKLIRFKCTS
T5 sequence (Q92847 whole entry): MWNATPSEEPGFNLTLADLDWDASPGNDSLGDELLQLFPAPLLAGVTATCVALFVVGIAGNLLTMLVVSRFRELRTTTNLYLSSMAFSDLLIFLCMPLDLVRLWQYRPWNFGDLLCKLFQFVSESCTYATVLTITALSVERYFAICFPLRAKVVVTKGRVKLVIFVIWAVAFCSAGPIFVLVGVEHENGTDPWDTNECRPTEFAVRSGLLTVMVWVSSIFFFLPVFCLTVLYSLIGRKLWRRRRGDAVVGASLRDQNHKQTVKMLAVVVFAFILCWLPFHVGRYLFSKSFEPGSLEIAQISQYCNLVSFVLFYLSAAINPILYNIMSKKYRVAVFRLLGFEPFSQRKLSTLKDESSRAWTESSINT
T6 sequence (P41968 whole entry): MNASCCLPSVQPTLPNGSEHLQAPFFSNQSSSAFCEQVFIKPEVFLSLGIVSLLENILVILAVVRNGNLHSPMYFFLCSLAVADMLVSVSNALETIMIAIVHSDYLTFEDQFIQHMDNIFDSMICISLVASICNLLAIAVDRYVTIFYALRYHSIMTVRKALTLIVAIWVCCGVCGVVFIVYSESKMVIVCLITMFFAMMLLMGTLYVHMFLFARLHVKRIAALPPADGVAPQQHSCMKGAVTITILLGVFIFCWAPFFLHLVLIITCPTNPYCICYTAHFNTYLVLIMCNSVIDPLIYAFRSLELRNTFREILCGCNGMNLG

| Structure (SMILES) | NanoBRET Fold Response (ADORA3; tracer 0.1μM) | NanoBRET Fold Response (ADORA3; tracer 1μM) | NanoBRET Fold Response (CCKAR; tracer 0.1μM) | NanoBRET Fold Response (CCKAR; tracer 1μM) | NanoBRET Fold Response (HTR1B; tracer 0.1μM) | NanoBRET Fold Response (HTR1B; tracer 1μM) | NanoBRET Fold Response (OPRK1; tracer 0.1μM) | NanoBRET Fold Response (OPRK1; tracer 1μM) | NanoBRET Fold Response (GHSR; tracer 0.1μM) | NanoBRET Fold Response (GHSR; tracer 1μM) | NanoBRET Fold Response (MC3R; tracer 0.1μM) | NanoBRET Fold Response (MC3R; tracer 1μM) |
| --- | --- | --- | --- | --- | --- | --- | --- | --- | --- | --- | --- | --- |
| O=C(CCc1ccc2n1[B-](F)(F)[N+]1=C(c3ccc[nH]3)C=CC1=C2)NCCOCCOCCNC(=O)OCCOCCN1CCN(C2=Nc3ccccc3Sc3ccccc32)CC1 [Quetiapine-a-2-NB590] | 0.98 | 0.82 | 1.04 | 0.94 | 1.03 | 1.58 | 0.94 | 0.97 | 0.97 | 0.77 | 0.98 | 1.08 |
| Cc1nc2n(c(=O)c1CCN1CCC(c3noc4cc(F)ccc34)CC1)CCCC2OC(=O)NCCOCCOCCOCCOCCNC(=O)CCc1ccc2n1[B-](F)(F)[N+]1=C(c3ccc[nH]3)C=CC1=C2 (stereo not drawn) [Risperidone-2-NB590] | 1.03 | 0.87 | 1.20 | 0.99 | 3.33 | 2.70 | 0.96 | 0.99 | 1.06 | 1.02 | 0.99 | 0.95 |
| CC(C)N(CC[C@H](c1ccccc1)c1cc(CCNC(=O)CCOCCOCCOCCOCCNC(=O)CCc2ccc3n2[B-](F)(F)[N+]2=C(c4ccc[nH]4)C=CC2=C3)ccc1O)C(C)C [Tolterodine-2-NB590] | 1.12 | 1.00 | 1.01 | 1.01 | 0.79 | 1.12 | 1.12 | 0.95 | 0.95 | 1.11 | 0.82 | 1.04 |
| CC(C)N(CC[C@H](c1ccccc1)c1cc(CCNC(=O)c2ccc(CNC(=O)CCc3ccc4n3[B-](F)(F)[N+]3=C(c5ccc[nH]5)C=CC3=C4)cc2)ccc1O)C(C)C [Tolterodine-BZ-NB590] | 0.58 | 0.71 | 1.05 | 1.03 | 1.12 | 1.33 | 0.90 | 0.96 | 1.00 | 1.06 | 1.03 | 1.01 |
| CCCn1c(=O)c2[nH]c(-c3ccc(OCC(=O)NCCNC(=O)CCOCCNC(=O)c4ccc(CNC(=O)CCc5ccc6n5[B-](F)(F)[N+]5=C(c7ccc[nH]7)C=CC5=C6)cc4)cc3)nc2n(CCC)c1=O [XAC-3-NB590] | 12.13 | 6.72 | 1.01 | 1.01 | 0.66 | 1.24 | 0.97 | 1.34 | 1.07 | 1.02 | 1.04 | 1.10 |

— article PMC8151276, “An Integrated Approach toward NanoBRET Tracers for Analysis of GPCR Ligand Engagement” (Molecules, 2021)
